Experimental data from patent US20090304714A1, “IKKi Inhibitor Therapies and Screening Methods, and Related IKKi Diagnostics” (The Regents of the University of Michigan, priority 2008, published 2009).

How the values were obtained:
3T3L1 adipocytes = assay: Insulin-stimulated 2-deoxyglucose uptake in 3T3L1 adipocytes; format: cell-based, mouse; design: inhibitory effects of LPS on insulin-stimulated glucose uptake / direct effect on insulin-stimulated or basal transport: dose or concentration left out as unconfirmed
Protocol: Cell culture and transfection. 3T3-L1 fibroblasts (American Type Culture Collection) were cultured and differentiated as described previously [Reed & Lane, Proc Natl Acad Sci USA. 1980 January; 77(1):285-9, herein incorporated by reference]. Cells were routinely used within 7 days upon completion of the differentiation process, with only cultures in which >95% of cells displaying adipocyte morphology being used. CHO-IR and COS-1 cells were maintained in Dulbecco modified Eagle medium (Gibco) containing 10% foetal bovine serum. CHO-IR and 3T3-L1 cells were routinely transfected with plasmids and siRNA by electroporation as described previously (Inoue, M., et al., (2006) Mol. Biol. Cell 17, 2303, Baumann, et al., (2000) Nature 407, 202, both of which are herein incorporated by reference). Cos-1 cells were transfected using FuGene6 (Roche Diagnostics) in accordance with the manufacturer's protocol.
Glucose uptake analysis. 3T3-L1 adipocytes grown in 12-well plates were subjected to a glucose uptake assay as described previously [Van den Berghe et al., Mol Cell Biol. 1994 April; 14(4):2372-7, herein incorporated by reference] using 0.075 uCi/well 2-deoxy-D-[^14C]glucose (GE Health). Samples were counted in an LS6500 Multi-Purpose Scintillation Counter (Beckman Coulter) using BCS Biodegradable Counting Scintillant (GE Health).

[1] = biological target: human insulin receptor Ser^1035Ala mutant (UniProt P06213)

Row | Compound | direct effect on insulin-stimulated or basal transport (3T3L1 adipocytes; 3T3L1 adipocytes) | LPS decreases in insulin stimulated glucose uptake (3T3L1 adipocytes; 3T3L1 adipocytes treated with 50 nM inhibitor prior to LPS and insulin (FIG. 6b)) | inhibitory effects of LPS on insulin-stimulated glucose uptake (3T3L1 adipocytes; 3T3L1 adipocytes treated, then LPS, followed by insulin) | incorporation of radioactive phosphate into the receptor [1]
1 | COc1cc2ncn(-c3cc(OCc4ccccc4S(C)(=O)=O)c(C#N)s3)c2cc1OC [5-(5,6-Dimethoxy-1H-benzimidazol-1-yl)-3-[[2-(methylsulfonyl)phenyl]methoxy]-2-thiophenecarbonitrile] | little direct effect | prevents | prevented | –
2 | wild-type IKKi (ectopically expressed, Example 1) | – | – | – | the Ser^1035Ala substitution blocked the incorporation of radioactive phosphate relative to the wild-type receptor when co-expressed with IKKi
